According to patent USRE43712E1, “Methods for assaying for antidepressant therapy markers” (The Board of Trustees of the Uniersity of Illinois, priority 2000, dated 2012):
Marks after values point to notes of the source that are not given here.

Columns and labels:
Type in all cases: cell-based
Gsα [1] = assay: Content of G protein (Gsα) in C6-2B glioma membranes after antidepressant treatment, quantitative immunoblot
Method: (§1) C6-2B cells (between passages 20 and 40) were grown in 175-cm^2 flasks in Dulbecco's modified Eagle medium, 4.5 g of glucose/L, 10% bovine serum, in a 10% CO2 atmosphere, at 37° C. for 3 days after splitting. […] Male Sprague-Dawley rats weighing 150-200 g were fed ad libitum and maintained in a 12-h light/dark cycle. […] 36:803-838, 1989]. […] Rat cerebral cortex membranes were prepared according to the method of Rasenick et al. [Nature, 294:560-562; 1981].
(§2) Rat cortex membrane, C6-2B cell membranes, or Triton extracts of each membrane preparation were subjected to SDS-PAGE followed by electrotransfer to polyvinylidene difluoride (PVDF) membrane. The PVDF membrane was incubated with a phosphate-buffered saline/Tween 20 Buffer (140 mM NaCl, […]. 0.1% Tween 20, pH 7.4) and 3% bovine serum albumin. The membrane was then incubated with polyclonal rabbit antisera against the various G protein subunits [RM (Gsα) or 116 (Gi1, Gi2, Gi3α)] at a 1:25,000 (RM) or 1:5,000 (116) dilution (see below for source of antibodies). […] Immunoreactivity was detected with an enhanced chemiluminescence (ECL) western blot detection system (Amersham) in accord with the manufacturer's instructions. The developed autoradiographs were analyzed by densitometry.
Purified recombinant GsαL (long form of Gsα; 1-10 ng/lane) was subjected to SDS-PAGE and transferred to PVDF membranes. The blots were incubated with antibody against Gsα (RM) and processed by ECL. Films were analyzed on a Molecular Dynamics densitometer, and the volume of each band was quantified and used to make a standard curve.
Experiments were conducted to determine whether Gsα is quantitatively altered by antidepressant therapy. For quantification of Gsα in C6-2B membrane, a standard curve was created using purified recombinant […]. Pure Gsα (1-20 ng/well) was subjected to SDS-PAGE and transferred to a PVDF membrane, Gsα was immunodetected by antisera against the as subunit of G protein.
To estimate the effect of antidepressant treatment on the amount of Gsα in C6-2B membranes, equal amounts (10 μg) of C6-2B glioma membrane proteins in control and chronically (3 days) antidepressant-treated groups were subjected to SDS-PAGE. Gsα was immunodetected by antisera against the αs subunit of G protein.

Gsα [2] = assay: Sequential detergent extraction (Triton X-100 / Triton X-114) of Gsα from C6-2B glioma membranes; conditions: C6-2B cells; for GsαL in Remainder, % of corresponding value in control group / GsαL in Triton X-100 extract, % of corresponding value in control group / GsαL in Triton X-114 extract, % of corresponding value in control group / GsαS in Remainder, % of corresponding value in control group / GsαS in Triton X-100 extract, % of corresponding value in control group / GsαS in Triton X-114 extract, % of corresponding value in control group: mean ± SEM of 4-5 experiments
Method: as §1
Membrane proteins were extracted sequentially from C6-2B or rat synaptic membranes as described [Yan et al., J. Neurochem., 66:1489-1495; 1996]. These membranes were stirred on ice in HEPES (15 mM, pH 7.4) containing 1% Triton X-100 for 60 min followed by centrifugation at 100,000 g for 60 min at 4° C. The supernatant was reserved (Triton X-100 extract), and the resulting pellet was resuspended in Tris (15 mM, pH 7.4) containing 1.4% Triton X-114 and 150 mM NaCl. The solution was stirred for 60 min at 4° C. and centrifuged for 30 min at 100,000 g in the cold. The supernatant was saved (Triton X-114 extract). These supernatants and remaining pellet (remainder) were subjected to sodium dodecyl sulfate (SDS)-polyacrylamide gel electophoresis (PAGE) using 10% gels. All of the extraction buffers contained 1 mM PMSF and 1 mM EGTA.
as §2
A membrane-enriched fraction was prepared (see Example 1), and membrane proteins were extracted sequentially with Triton X-100 (Tx 100) and Triton X-114 (Tx 114). Equal amounts of these extracts were subjected to SDS-PAGE and transferred to PVDF membrane. The long and short forms of Gsα (GsαL and GsαS) from different fractions were identified by immunodetection.
Experiments were conducted according to the method set forth in Example 1 to assess the effects of different antidepressants on the detergent extraction of Gsα from C6-2B glioma cells.
The ratios of the percentage of Gsα extracted by the two detergents in the treatment versus control groups were compared and are set forth in Table 2 as percentage of control (i.e., each Triton X-100 extract was compared with the untreated Triton X-100 extract; the same was done for Triton X-114 extracts as well as the remainder).

Gsα [3] = assay: Gsα in Triton-insoluble, caveolin-enriched versus Triton-soluble fraction of C6-2B cells (sucrose density gradient, immunoblot); conditions: chronic treatment, FIG. 3C
Method: as §2

Gsα [4] = assay: Cellular localization of Gsα in C6-2B cells, immunofluorescence laser scanning confocal microscopy; conditions: 10 μM, 3 days
Method: C6-2B cells (between passages 30 and 50) were plated onto coverslips and allowed to attach overnight in Dulbecco's modified Eagle's medium. 4.5 g/l glucose, 10% bovine serum, and 100 μg/ml penicillin and streptomycin at 37° C. in a humidified 10% CO2 atmosphere. […] Therefore, the latter treatment paradigm was used in these experiments because it was easier to maintain the cell cultures for 3 days. […] The culture media and drug were changed daily. […] After the treatment duration, the cells were incubated in drug-free media for 45 to 60 minutes before fixation.
After treatment, cells were washed once with phosphate-buffered saline (PBS, […] NaCl, 2.6 mM KCl, 5.4 mM NaαPO4 7H2O, pH 7.4) and fixed with ice-cold methanol for 10 minutes. Cells were then washed three times with PBS followed by 2 h of blocking in 5% normal goat serum/0.2% fish skin gelatin in PBS. Primary antibody was added for 1.5 h, Gsα/RM1 (PerkinElmer Life Sciences, Boston, Mass.) 1:50 and Goα (Santa Cruz Biotechnology, Santa Cruz, Calif.) 2 μg/ml, followed by three washes with PBS. Oregon Green-labeled secondary antibody (Molecular Probes, Eugene, Oreg.) was added at a concentration of 8 μg/ml for 1 h followed by three PBS washes. The coverslips were mounted onto slides with Vectashield (Vector Laboratories. Burlingame, Calif.) containing diamidino-2-phenylindole as a mounting medium. Images were acquired using a Zeiss LSM510 laser-scanning confocal microscope (Carl Zeiss Inc., Thornwood, N.Y.). A single 488-nm beam from an argon/krypton laser was used for excitation of the Oregon Green. Differential interference contrast images were also acquired. Five experiments were performed and coverslips were examined. Approximately 2100 cells from control and desipramine-treated coverslips were counted by two investigators blind to the experimental conditions over the course of the five experiments.
The cellular distribution of Gsα was quantified in confocal imaged C6-2B cells using NIH-Image software (http://rsbinfonihpov/nih-image) as describe previously [Southwell et al., Cell Tissue Res., 292:37-45, 1998; Jenkinson et al., Br. J. Pharmacol., 126:131-136, 1999]. Images of 9×1 μm optical, planar sections taken from four randomly selected control and four randomly selected desipramine-treated cells were captured and the middle five sections from each cell were quantified. Total cellular Gsα fluorescence was measured by counting the number of pixels with intensity above threshold (determined by minimum intensity above background in this case 50 pixels). The areas of intensity were numbered and divided visually into those localized to the cell body and those localized to the processes and process tips. The total from each region was divided by the total cell pixel intensity and expressed as a percentage of the total. This was done for each section of each cell and the sections were averaged per cell to give an average percentage total per cell.
In a separate investigation, seven sets of 300 cells each from control group and desipramine-treated cells from five experiments were counted to determine the primary localization (processes and process tips or cell body) of Gsα within these cells. The majority of the cells stained positively for Gsα throughout the entire cell, but there was usually an enhancement in one of these regions. […] The counts are expressed as the ratio of process and process tip localization/cell body localization.
Studies were conducted to determine whether a shift in cellular localization of Gsα occurred in C6-2B cells subjected to antidepressants.
Twenty-one hundred cells from each group (control versus desipramine-treated) over a series of five experiments were examined to quantify the extent of the antidepressant effect. […] Abnormal cells or those not displaying processes were not included in the cell count. Cells (300-450) were counted per experiment and the ratio of category A cells to category B cells for each group is shown in FIG. 8. […]

[5] = C6-2B membranes, 10 μM drug for 3 days, mean ± SEM of 4-5 experiments

Row | Compound | Quantity of G proteins in membrane, treated versus control (Gsα [1]; C6-2B cells, 10 μM, 3 days, p>0.05) | G protein amount, Total (Gsα [1]; [5]) | G protein amount, αsL (Gsα [1]; [5]) | G protein amount, αsS (Gsα [1]; [5]) | GsαL in the Triton X-114 fraction versus control group (Gsα [2]; 10 μM, 3 days, FIG. 1) | GsαL in Remainder, % of corresponding value in control group (Gsα [2]; 10 μM, 3 days) [%] | GsαL in Triton X-100 extract, % of corresponding value in control group (Gsα [2]; 10 μM, 3 days) | GsαL in Triton X-114 extract, % of corresponding value in control group (Gsα [2]; 10 μM, 3 days) | GsαS in Remainder, % of corresponding value in control group (Gsα [2]; 10 μM, 3 days) | GsαS in Triton X-100 extract, % of corresponding value in control group (Gsα [2]; 10 μM, 3 days) | GsαS in Triton X-114 extract, % of corresponding value in control group (Gsα [2]; 10 μM, 3 days) [%] | Shift of Gsα to the less hydrophobic Triton X-100 fraction (Gsα [2]) | Decrease of the amount of Gsα in the caveolin-enriched Triton-insoluble fraction, normalized to equal caveolin (Gsα [3]) | Gsα immunofluorescence in cell processes and process tips (Gsα [4]) | Cells displaying intense Gsα staining at the process tips (and processes) (Gsα [4]; control 64%) [%]
1 | CN(C)CCC=C1c2ccccc2CCc2ccccc21 [Amitriptyline, amitriptyline] | no significant differences | 13.10 ± 0.34 ng/10 ug of membrane protein | 8.13 ± 0.17 ng/10 ug of membrane protein | 4.98 ± 0.21 ng/10 ug of membrane protein | significantly lower | 83.4 ± 14.5 | 120.3 ± 3.7^b % | 84.5 ± 0.8^b % | 82.6 ± 5.1^a % | 140.3 ± 9.3^b % | 92.7 ± 3.8 | – | – | – | –
2 | CN(C)CCCN1c2ccccc2Sc2ccc(Cl)cc21 [Chlorpromazine, chlorpromazine] | – | – | – | – | – | 83.8 ± 22.0 | 107.4 ± 8.3% | 105.7 ± 6.5% | 100.4 ± 31.6% | 113.4 ± 10.7% | 102.2 ± 15.6 | did not exert these effects | no more than 25% | uniform distribution of Gsα similar to control | 68
3 | CC(N)Cc1ccccc1 (stereo not shown) [amphetamine] | – | – | – | – | – | – | – | – | – | – | – | without effect | – | – | –
